According to article PMC8741894 (2022):

Tests used:
[1] = tested on: MN19 (DNA, aptamer) GACAAGGAAAATCCTTCAACGAAGTGGGTC; assay: UV melting, 260 nm; conditions: 137 mM NaCl, 2.7 mM KCl; PBS pH 7.4, 3% acetonitrile; Tm of complex, free MN19 shows no transition
[2] = tested on: MN4 (DNA, aptamer) GGCGACAAGGAAAATCCTTCAACGAAGTGGGTCGCC; assay: ITC competition; conditions: 140 mM NaCl, 5 mM KCl; 20 mM TRIS pH 7.4, 1% DMSO, 15 °C; apparent; ART pre-bound 3:1, competitive binding model
[3] = tested on: MN4 (DNA, aptamer) GGCGACAAGGAAAATCCTTCAACGAAGTGGGTCGCC; assay: ITC; conditions: 140 mM NaCl, 5 mM KCl, 15 °C
[4] = tested on: SRE RNA (RNA, hairpin) GGAGGCUCUGGCAGCUUUC; assay: ITC; conditions: 140 mM NaCl, 5 mM KCl; 20 mM TRIS pH 7.4, 2.4% DMSO, 15 °C; 20 µM nucleic acid, 0.312 mM titrant
[5] = tested on: MN4 (DNA, aptamer) GGCGACAAGGAAAATCCTTCAACGAAGTGGGTCGCC; assay: 1H NMR imino titration; conditions: sodium phosphate, no added NaCl; 20 mM phosphate pH 7.4, 5 °C; slow exchange, shifts near three-way junction
[6] = tested on: DDD (DNA, duplex) CGCGAATTCGCG/CGCGAATTCGCG; assay: ITC; conditions: 140 mM NaCl, 5 mM KCl; 20 mM TRIS pH 7.4, 2.4% DMSO, 15 °C; site 1 of 2
[7] = tested on: MN19 (DNA, aptamer) GACAAGGAAAATCCTTCAACGAAGTGGGTC; assay: ITC; conditions: 140 mM NaCl, 5 mM KCl; 20 mM TRIS pH 7.4, 2.4% DMSO, 15 °C; site 1 of 2
[8] = tested on: MN19-SITS (DNA, aptamer) GACAAGGAAAATCCTTCAACGAAGTGGGTC; assay: photochrome aptamer switch assay (fluorescence decay); conditions: 140 mM NaCl; 20 mM Tris pH 7.4, 3% DMSO, 20 °C; 0-4.2 µM ART
[9] = tested on: SS1 (DNA, junction) GGCGACGAGGAAAATCCTTCGACGAAGTAAGTCGCC; assay: ITC; conditions: 140 mM NaCl, 5 mM KCl; 20 mM TRIS pH 7.4, 2.4% DMSO, 15 °C; site 1 of 2
[10] = tested on: Hexamer (DNA, duplex) CGTACG/CGTACG; assay: ITC; conditions: 140 mM NaCl, 5 mM KCl; 20 mM TRIS pH 7.4, 2.4% DMSO, 15 °C; site 1 of 2
[11] = tested on: Hybrid DNA/RNA (DNA:RNA, duplex) GACACCUGAUUC/GAATCAGGTGTC; assay: ITC; conditions: 140 mM NaCl, 5 mM KCl; 20 mM TRIS pH 7.4, 2.4% DMSO, 15 °C; 20 µM nucleic acid, 0.312 mM titrant
[12] = tested on: TWJ (DNA, junction) CGTGCAGCGGCTTGCCGGCACTTGTGCTTCTGCACG; assay: ITC; conditions: 140 mM NaCl, 5 mM KCl; 20 mM TRIS pH 7.4, 2.4% DMSO, 15 °C; site 1 of 2
[13] = tested on: OR7 (DNA, aptamer) CAAGGAAAATCCTTCAACGAAGTGGG; assay: ITC; conditions: 140 mM NaCl, 5 mM KCl; 20 mM TRIS pH 7.4, 2.4% DMSO, 15 °C; site 1 of 2
[14] = tested on: MN4 (DNA, aptamer) GGCGACAAGGAAAATCCTTCAACGAAGTGGGTCGCC; assay: native mass spectrometry with CID; conditions: 300 mM ammonium acetate; pH 6.8; 10 µM aptamer, 100 µM ART; non-covalent
[15] = tested on: poly-dT (DNA, single strand) TTTTTTTTTTTT; assay: ITC; conditions: 140 mM NaCl, 5 mM KCl; 20 mM TRIS pH 7.4, 2.4% DMSO, 15 °C; 20 µM nucleic acid, 0.312 mM titrant

Compound	Tm [1] [°C]	Kd, app [2] [µM]	binding ([3]; 20 mM TRIS pH 7.4, 1.5% DMSO, 20 µM aptamer, 0.312 mM titrant)	binding [4]	binding [5]	Kd1 [6] [µM]	Kd1 [7] [µM]	Kd1 ([3]; 20 mM TRIS pH 7.4, 2.4% DMSO, site 1 of 2) [µM]	binding [8]	Kd1 [9] [µM]	Kd1 [10] [µM]	binding [11]	Kd1 [12] [µM]	Kd1 [13] [µM]	binding [14]	binding [15]
C=C[C@H]1CN2CC[C@H]1C[C@H]2[C@H](O)c1ccnc2ccc(OC)cc12	36.4 ± 1.2	1.1 ± 0.1	–	–	–	–	–	–	–	–	–	–	–	–	–	–
C[C@@H]1CC[C@H]2[C@@H](C)C(=O)O[C@@H]3O[C@@]4(C)CC[C@@H]1[C@]32O4	–	–	no	–	–	–	–	–	–	–	–	–	–	–	–	–
C[C@@H]1CC[C@H]2[C@@H](C)C(=O)O[C@@H]3O[C@@]4(C)CC[C@@H]1[C@]32OO4	34.8 ± 1.1	–	–	no	yes	0.10 ± 0.03	0.02 ± 0.01	0.03 ± 0.01	yes	0.004 ± 0.002	0.007 ± 0.004	no	0.06 ± 0.02	0.03 ± 0.01	yes	no
